In brackets after ≈: the same amount, converted by molar mass.
Assays:
[1] = tested on: Enterococcus faecalis; test: Antibacterial activity against Enterococcus faecalis ATCC 51299 assessed as reduction in bacterial growth; format: functional
[2] = tested on: Escherichia coli; test: Antibacterial activity against Escherichia coli 15-4 overexpressing extended spectrum beta-lactamases assessed as reduction in bacterial growth; format: functional
[3] = tested on: Escherichia coli; test: Antibacterial activity against Escherichia coli 15-5 overexpressing extended spectrum beta-lactamases assessed as reduction in bacterial growth; format: functional
[4] = tested on: Klebsiella pneumoniae; test: Antibacterial activity against Multidrug resistant Klebsiella pneumoniae KR 15-2 assessed as reduction in bacterial growth; format: functional
[5] = tested on: Enterococcus faecalis; test: Antibacterial activity against Enterococcus faecalis ATCC 51299 assessed as reduction in bacterial growth in the presence of Avibactam; format: functional
[6] = tested on: Klebsiella pneumoniae; test: Antibacterial activity against Multidrug resistant Klebsiella pneumoniae KR 15-1 assessed as reduction in bacterial growth in the presence of Avibactam; format: functional
[7] = tested on: Escherichia coli; test: Antibacterial activity against ESBLs negative Carbapenem-sensitive Escherichia coli 17-4 assessed as reduction in bacterial growth; format: functional
[8] = tested on: Escherichia coli; test: Antibacterial activity against ESBLs negative Carbapenem-sensitive Escherichia coli 17-19 assessed as reduction in bacterial growth; format: functional
[9] = tested on: Pseudomonas aeruginosa; test: Antibacterial activity against Carbapenem- sensitive Pseudomonas aeruginosa 17-11 assessed as reduction in bacterial growth; format: functional
[10] = tested on: Acinetobacter baumannii; test: Antibacterial activity against Carbapenem- resistant Acinetobacter baumannii 17-3 assessed as reduction in bacterial growth in the presence of Avibactam; format: functional
[11] = tested on: Acinetobacter baumannii; test: Antibacterial activity against Carbapenem- resistant Acinetobacter baumannii 17-5 assessed as reduction in bacterial growth in the presence of Avibactam; format: functional
[12] = tested on: Acinetobacter baumannii; test: Antibacterial activity against Carbapenem- resistant Acinetobacter baumannii 17-6 assessed as reduction in bacterial growth in the presence of Avibactam; format: functional
[13] = tested on: Acinetobacter baumannii; test: Antibacterial activity against Carbapenem- resistant Acinetobacter baumannii 17-12 assessed as reduction in bacterial growth in the presence of Avibactam; format: functional
[14] = tested on: Klebsiella pneumoniae; test: Antibacterial activity against Carbapenem- resistant Klebsiella pneumoniae KR 15-7 assessed as reduction in bacterial growth in the presence of Avibactam; format: functional
[15] = tested on: Klebsiella pneumoniae; test: Antibacterial activity against Carbapenem- resistant Klebsiella pneumoniae KR 15-11 assessed as reduction in bacterial growth in the presence of Avibactam; format: functional
[16] = tested on: Klebsiella pneumoniae; test: Antibacterial activity against Carbapenem- resistant Klebsiella pneumoniae KR 15-12 assessed as reduction in bacterial growth in the presence of Avibactam; format: functional
[17] = tested on: Klebsiella pneumoniae; test: Antibacterial activity against Carbapenem- resistant Klebsiella pneumoniae KR 15-13 assessed as reduction in bacterial growth in the presence of Avibactam; format: functional
[18] = tested on: Pseudomonas aeruginosa; test: Antibacterial activity against Carbapenem- resistant Pseudomonas aeruginosa 17-5 assessed as reduction in bacterial growth in the presence of Avibactam; format: functional
[19] = tested on: Escherichia coli; test: Antibacterial activity against ESBLs positive Carbapenem-sensitive Escherichia coli 17-6 assessed as reduction in bacterial growth in the presence of Avibactam; format: functional
[20] = tested on: Escherichia coli; test: Antibacterial activity against ESBLs positive Carbapenem-sensitive Escherichia coli 17-15 assessed as reduction in bacterial growth in the presence of Avibactam; format: functional
[21] = tested on: Escherichia coli; test: Antibacterial activity against ESBLs positive Carbapenem- sensitive Escherichia coli 17-17 assessed as reduction in bacterial growth in the presence of Avibactam; format: functional
[22] = tested on: Escherichia coli; test: Antibacterial activity against ESBLs negative Carbapenem-sensitive Escherichia coli 17-7 assessed as reduction in bacterial growth in the presence of Avibactam; format: functional
[23] = tested on: Enterobacter cloacae; test: Antibacterial activity against Enterobacter cloacae 17-2 assessed as reduction in bacterial growth in the presence of Avibactam; format: functional
[24] = tested on: Klebsiella aerogenes; test: Antibacterial activity against Enterobacter aerogenes 15-3 assessed as reduction in bacterial growth in the presence of Avibactam; format: functional
[25] = tested on: Pseudomonas aeruginosa; test: Antibacterial activity against Carbapenem- sensitive Pseudomonas aeruginosa 17-7 assessed as reduction in bacterial growth in the presence of Avibactam; format: functional
[26] = tested on: Pseudomonas aeruginosa; test: Antibacterial activity against Carbapenem- sensitive Pseudomonas aeruginosa 17-9 assessed as reduction in bacterial growth in the presence of Avibactam; format: functional
[27] = tested on: Pseudomonas aeruginosa; test: Antibacterial activity against Carbapenem- sensitive Pseudomonas aeruginosa 17-29 assessed as reduction in bacterial growth in the presence of Avibactam; format: functional
[28] = tested on: Acinetobacter baumannii; test: Bactericidal activity against Carbapenem- resistant Acinetobacter baumannii 17-6 assessed as reduction in bacterial growth; format: functional
[29] = tested on: Klebsiella pneumoniae; test: Bactericidal activity against Carbapenem- resistant Klebsiella pneumoniae KR 15-7 assessed as reduction in bacterial growth; format: functional
[30] = tested on: Pseudomonas aeruginosa; test: Bactericidal activity against Carbapenem- resistant Pseudomonas aeruginosa 17-8 assessed as reduction in bacterial growth; format: functional
[31] = tested on: Escherichia coli; test: Bactericidal activity against ESBLs negative Carbapenem--sensitive Escherichia coli 17-9 assessed as reduction in bacterial growth; format: functional
[32] = tested on: Escherichia coli; test: Bactericidal activity against ESBLs positive Carbapenem-sensitive Escherichia coli 17-18 assessed as reduction in bacterial growth; format: functional
[33] = tested on: Escherichia coli; test: Bactericidal activity against Escherichia coli ATCC 25922 assessed as reduction in bacterial growth; format: functional
[34] = tested on: Pseudomonas aeruginosa; test: Bactericidal activity against Pseudomonas aeruginosa ATCC 27853 assessed as reduction in bacterial growth; format: functional
[35] = tested on: Klebsiella pneumoniae; test: Bactericidal activity against Carbapenem- resistant Klebsiella pneumoniae KR 15-4 assessed as reduction in bacterial growth in the presence of avibactam; format: functional
[36] = tested on: Klebsiella pneumoniae; test: Bactericidal activity against Carbapenem- resistant Klebsiella pneumoniae KR 15-5 assessed as reduction in bacterial growth in the presence of avibactam; format: functional
[37] = tested on: Klebsiella pneumoniae; test: Bactericidal activity against Carbapenem- resistant Klebsiella pneumoniae KR 15-6 assessed as reduction in bacterial growth in the presence of avibactam; format: functional
[38] = tested on: Klebsiella pneumoniae; test: Bactericidal activity against Carbapenem- resistant Klebsiella pneumoniae KR 15-7 assessed as reduction in bacterial growth in the presence of avibactam; format: functional
[39] = tested on: Klebsiella pneumoniae; test: Bactericidal activity against ESBLs positive Carbapenem-sensitive Klebsiella pneumoniae 17-2 assessed as reduction in bacterial growth in the presence of avibactam; format: functional
[40] = tested on: Klebsiella pneumoniae; test: Bactericidal activity against ESBLs positive Carbapenem-sensitive Klebsiella pneumoniae 17-12 assessed as reduction in bacterial growth in the presence of avibactam; format: functional
[41] = tested on: Klebsiella pneumoniae; test: Bactericidal activity against ESBLs negative Carbapenem-sensitive Klebsiella pneumoniae 17-17 assessed as reduction in bacterial growth in the presence of avibactam; format: functional
[42] = tested on: Escherichia coli; test: Bactericidal activity against ESBLs negative carbapenem-sensitive Escherichia coli 17-9 assessed as reduction in bacterial growth in the presence of avibactam; format: functional
[43] = tested on: Pseudomonas aeruginosa; test: Bactericidal activity against carbapenem-sensitive Pseudomonas aeruginosa 17-9 assessed as reduction in bacterial growth in the presence of avibactam; format: functional
[44] = tested on: Acinetobacter baumannii; test: Bactericidal activity against Acinetobacter baumannii NCTC 13304 assessed as reduction in bacterial growth in the presence of avibactam; format: functional
[45] = tested on: Enterobacter cloacae; test: Antibacterial activity against Enterobacter cloacae 17-2 assessed as reduction in bacterial growth
[46] = tested on: Pseudomonas aeruginosa; test: Antibacterial activity against Carbapenem- resistant Pseudomonas aeruginosa 17-5 assessed as reduction in bacterial growth
[47] = tested on: Klebsiella pneumoniae; test: Antibacterial activity against ESBLs negative Carbapenem-sensitive Klebsiella pneumoniae 17-16 assessed as reduction in bacterial growth

Nc1nc(/C(=N/OCc2cc(=O)c(O)cn2O)C(=O)N[C@@H]2C(=O)N3C(C(=O)O)=CCS[C@H]23)cs1
MIC [1]: > 64 mg/L
MIC [2]: > 64 mg/L
MIC [3]: > 64 mg/L
MIC [4]: > 64 mg/L
MIC [5]: > 64 mg/L
MIC [6]: 1 mg/L
MIC [7]: 0.25 mg/L (≈ 0.492 µM)
MIC [8]: 1 mg/L (≈ 1.97 µM)
MIC [9]: 8 mg/L (≈ 15.7 µM)
MIC [10]: 16 mg/L
MIC [11]: 16 mg/L
MIC [12]: 16 mg/L
MIC [13]: 16 mg/L
MIC [14]: 1 mg/L
MIC [15]: 1 mg/L
MIC [16]: 4 mg/L
MIC [17]: 2 mg/L
MIC [18]: 32 mg/L
MIC [19]: 0.5 mg/L
MIC [20]: 0.25 mg/L
MIC [21]: 0.5 mg/L
MIC [22]: 0.5 mg/L
MIC [23]: 1 mg/L
MIC [24]: 16 mg/L
MIC [25]: 0.25 mg/L
MIC [26]: 2 mg/L
MIC [27]: 1 mg/L
MBC [28]: > 64 mg/L
MBC [29]: > 64 mg/L
MBC [30]: 64 mg/L (≈ 126 µM)
MBC [31]: 2 mg/L (≈ 3.93 µM)
MBC [32]: 32 mg/L (≈ 62.9 µM)
MBC [33]: > 8 mg/L
MBC [34]: 16 mg/L (≈ 31.5 µM)
MBC [35]: 8 mg/L
MBC [36]: 4 mg/L
MBC [37]: 0.5 mg/L
MBC [38]: 2 mg/L
MBC [39]: 0.125 mg/L
MBC [40]: 0.125 mg/L
MBC [41]: 1 mg/L
MBC [42]: 2 mg/L
MBC [43]: 4 mg/L
MBC [44]: 16 mg/L
MIC [45]: > 64 mg/L
MIC [46]: 64 mg/L (≈ 126 µM)
MIC [47]: 0.5 mg/L (≈ 0.983 µM)

CC(C)(O/N=C(\C(=O)N[C@@H]1C(=O)N2C(C(=O)[O-])=C(C[n+]3ccccc3)CS[C@H]12)c1csc(N)n1)C(=O)O [CEFTAZIDIME]
MIC [1]: > 64 mg/L
MIC [2]: 16 mg/L (≈ 29.3 µM)
MIC [3]: 32 mg/L (≈ 58.5 µM)
MIC [4]: > 64 mg/L
MIC [5]: > 64 mg/L
MIC [6]: 2 mg/L
MIC [10]: 8 mg/L
MIC [11]: 8 mg/L
MIC [12]: 8 mg/L
MIC [13]: 8 mg/L
MIC [14]: 2 mg/L
MIC [15]: 2 mg/L
MIC [16]: 4 mg/L
MIC [17]: 1 mg/L
MIC [18]: 32 mg/L
MIC [19]: 0.5 mg/L
MIC [20]: 0.5 mg/L
MIC [21]: 0.5 mg/L
MIC [22]: 0.125 mg/L
MIC [23]: 1 mg/L
MIC [24]: 4 mg/L
MIC [25]: 0.125 mg/L
MIC [26]: 0.125 mg/L
MIC [27]: 0.5 mg/L
MBC [28]: > 64 mg/L
MBC [29]: > 64 mg/L
MBC [30]: 64 mg/L (≈ 117 µM)
MBC [31]: 4 mg/L (≈ 7.32 µM)
MBC [32]: 2 mg/L (≈ 3.66 µM)
MBC [33]: 0.5 mg/L (≈ 0.915 µM)
MBC [34]: 1 mg/L (≈ 1.83 µM)
MBC [35]: 2 mg/L
MBC [36]: 4 mg/L
MBC [37]: 2 mg/L
MBC [38]: 2 mg/L
MBC [39]: 0.25 mg/L
MBC [40]: 1 mg/L
MBC [41]: 0.25 mg/L
MBC [42]: 0.25 mg/L
MBC [43]: 0.25 mg/L
MBC [44]: 8 mg/L
MIC [45]: 64 mg/L (≈ 117 µM)
MIC [46]: 64 mg/L (≈ 117 µM)
MIC [47]: 2 mg/L (≈ 3.66 µM)

C[C@@H](O)[C@H]1C(=O)N2C(C(=O)O)=C(S[C@@H]3CN[C@H](C(=O)N(C)C)C3)[C@H](C)[C@H]12 [MEROPENEM]
MIC [7]: < 0.03 mg/L
MIC [8]: < 0.03 mg/L
MIC [9]: 2 mg/L (≈ 5.22 µM)

Source: ChEMBL document CHEMBL4813981, “Synthesis and in vitro antibacterial activity of new aminothiazole-oximepiperidone cephalosporins” (2021)
